Experimental data: patent US20140322145A1, “ANTIMICROBIAL COMPOSITION” (Rohm and Haas Company, priority 2011, published 2014)

Tests used:
Type in all cases: cell-based
[1] = test system: Escherichia coli (E. coli—ATCC #10536); assay: Automated assessment of efficacy in surfactant base (Example 4); settings: for 15 second bactericidal efficacy in combination with thymol: at concentrations lower than their MBC in the same surfactant formulation; for MBC (minimum biocidal concentration): in 2.85% sodium cocoyl glycinate + 1.85% sodium lauroamphoacetate solution at pH 10
Procedure: In these examples, the efficacy of combinations of thymol and antimicrobial alcohols of the invention were tested in a surfactant cleansing formulation comprising 2.85% sodium cocoyl glycinate and 1.85% sodium lauroamphoacetate. This corresponds to a 50% in use dilution with water of a typical neat formulation containing 5.7% cocoyl glycinate and 3.7% % sodium lauroamphoacetate during hand washing. Solutions were prepared such that the concentrations of the surfactant components and test actives were 1.1 times the final desired concentration in order to allow for dilution with the bacterial inoculum in the test. The solutions were manually adjusted to pH 10.0 by dropwise addition of sodium hydroxide solution, as measured with a pH meter at ambient temperature. Solutions of the thymol and/or antimicrobial alcohols of the invention were prepared at a maximum of 24 hours before testing. The same thymol and antimicrobial alcohols were used as in Examples 1 and 3.
The efficacy of the combinations of the present invention was determined against the same bacterium as in Example 1, Escherichia coli (E. coli—ATCC #10536), at a concentration of approximately 1×10^8 bacteria per mL.
Tests were conducted using standard microtiter plate assays using an automated liquid handling system. 270 μl of the surfactant test solution was pipetted into each well of the microtitre plate (Nunc F Gamma Irradiated 96F untreated microtitre plates of clear polystyrene) and 30 μl of the bacterial suspension was then added. After exactly 15 seconds of bacterial exposure, a 30 μl volume of bacterial cells was withdrawn and transferred to 270 μl of D/E quench solution. After 5 minutes in the DIE quench, the optical density (OD) was measured for each plate in turn at two specific wavelengths (450 nm and 590 nm). These provide a dual check of antimicrobial activity, as the OD450 reading is specific for the yellow colour of DIE quench when bacterial growth is observed, whereas OD590 is specific for the initial purple colour of the DIE quench which is retained if no bacterial growth is observed. After the time zero OD measurements, plates were then incubated at 37° C. overnight (16 hours) before repeating the OD measurements. Delta OD values were calculated by subtracting […] at time=16 hours. Bacterial growth is observed as an increase in OD450 and a decrease in OD590. To identify antibacterially efficacious systems (those preventing appreciable bacterial growth after incubation), the following threshold changes in OD readings have been adopted: if (1). OD450 increases by less than 0.2 absorbance unit (AU) on incubation and (2). OD590 decreases by less than 0.35 AU on incubation. Conversely, where OD450 increases by more than 0.1 AU and OD590 decreases by more than 0.1 AU after incubation, corresponding to a colour shift from purple to yellow, the test system allows bacterial growth and is not deemed efficacious. Four replicate measurements in the same plate have been made for each test system. The number of replicate wells showing either bacterial growth or no growth is also readily assessed by eye by following the colour change. Thymol and terpineol were tested both alone and in combination for comparison purposes.
In each case, binary mixtures were assessed in the weight to weight ratio of thymol to antimicrobial alcohol of 1:2.5.

[2] = test system: Escherichia coli (10536 strain); assay: 15 seconds contact-time bacterial kill assay, microtitre plate, plate counts (Examples 1 and 3); settings: for MBC of antimicrobial alcohol: alcohol alone
Procedure: The efficacies of antimicrobial agents can be usefully compared by determining the Minimum Biocidal Concentration (MBC). The MBC is defined as the lowest absolute concentration of the particular active that provides complete kill (zero bacterial growth).
Antimicrobial efficacy is tested against a representative pathogenic bacterial organism, Gram negative Escherichia coli. Concentrations of actives are expressed in terms of the percentage weight/volume (% w/v) throughout Example 1.
An overnight culture of Escherichia coli (10536 strain) was prepared in 50 ml total volume of TSB broth, grown for ca. 18 hrs at 37° C. and shaken at 150 rpm. 1 ml of this overnight E. coli culture was transferred to 50 ml of fresh TSB broth and incubated at 37° C. at 150 rpm for ca. 4 hours. This culture was separated into equal volumes and centrifuged at 4000 rpm for 15 minutes, washed with sterile saline (0.85% NaCl), centrifuged once more and re-suspended in saline to give a final concentration of 0.8 OD620 equivalent to about 10^8 cells per milliliter for this particular organism. Here, OD620 indicates the absorbance of a sample in a cuvette of 1.0 cm path length at a wavelength of 620 nm. This bacterial stock was used for assaying against antimicrobial actives (in triplicate).
The following assay describes the testing of 8 materials using 6 dilutions across half of a 96-well micro titre plate (MTP). Using this approach it is possible to assay 16 actives (without replicates) with one full dilution plate, replicating this set up in two halves of the plate columns, 1-6 and 7-12.
1M solutions of the test actives were prepared in dimethylsulphoxide (DMSO).
Aliquots (270 μl) of the materials at 1.11 times the final concentration were dispensed into the wells of the MTP along one column (A1-H1). This MTP was labelled as the “Screening plate”.
In another MTP, labelled as the “Dilution plate”, 270 μl of D/E neutralising solution from DIFCO Composition was added to column 1. The composition of the neutralising solution was as follows: pancreatic digest of casein, 5.0 g/L; Yeast Extract, 2.5 g/L; Dextrose, 10 g/L, sodium thioglycollate, 1.0 g/L, sodium thiosulphate, 6.0 g/L; sodium bisulphite. 2.5 g/L; Polysorbate 80, 5.0 g/L; lecithin 7.0 g/L; bromocresol purple, 0.02 g/L with a pH in the range 7.6±0.2.
270 μl of tryptone diluent solution was added to all the remaining wells of the Dilution MTP (columns 2-6).
Bacterial stock (30 μl) was then added to the prepared 270 μl of the solution of actives in the Screening Plate and mixed, using a multichannel pipette with 8 tips to aspirate and dispense the same volume of bacterial stock in parallel to 8 wells in rows A-H. After a contact time of 15 seconds, the mixtures were quenched by transferring 30 μl volumes of the mixtures into the 270 μl DIE neutralising solution in the prepared dilution plate, using aspiration to mix. After exactly 5 minutes in the DIE neutralising solution, 30 μl volumes were transferred from column 1 to column 2 of the Dilution MTP and mixed, before transferring further 30 μl volumes from column 2 into column 3. This process was repeated serially diluting the bacteria across the plate to column 6.
30 μl volumes from each well in the Dilution MTP were transferred onto pre-labelled segment of Tryptone Soya Agar (TSA) plates starting from the lowest bacterial concentration (highest dilution, column 6) to the highest bacterial concentration (column 1). The TSA plates were allowed to stand for ca. 2 hours so that the 30 μl inocula spots could dry and the plates were then inverted and incubated overnight at 37° C. before enumerating the bacterial colonies at the labelled dilutions to determine the effects of the actives on bacterial growth.
Mean bacterial survival numbers NMBS (expressed in Log CFU/ml) are obtained by first determining the segment of the TSA plate where the number of bacterial colonies is countable. From the colony number in this segment, NMBS is calculated by the formula: […]

[3] = test system: Escherichia coli (E. coli—ATCC #10536); assay: High resolution MBC synergy assay in phosphate buffer containing 35% dipropylene glycol (Example 2); settings: complete kill in 15 seconds; other component 0
Procedure: In this Example, a wide range of combinations of chemicals was tested by conducting high resolution MBC assays of isocyclogeraniol in the presence of various concentrations of thymol. The materials were sourced in the same way as for Example 1. Synergy tests were conducted using standard microtiter plate assays with phosphate buffer containing 35% dipropylene glycol (DPG). […] The MBC plate was inoculated one column at a time with the test microorganism. An aliquot of the inoculated well was transferred at 15 seconds to a plate containing a neutralizing agent (D/E Neutralizing Broth), mixed and held for 5 minutes before being transferred to a growth plate containing trypticase soy broth (TSB). The TSB plate was incubated at 37° C. and read for the presence I absence of growth at 24 hours. […] This microorganism is representative of natural contaminants in many consumer and industrial applications.

[4] = Table 10, from the data in Table 9, 15 seconds

Structure (SMILES)	15 second bactericidal efficacy in combination with thymol [1]	MBC (minimum biocidal concentration) [1]	MBC (minimum biocidal concentration) [2, 4]	MBC of antimicrobial alcohol ([2]; Table 11, 15 seconds)	MBC (minimum biocidal concentration) ([1]; listed as Isocyclogeraniol)	MBC (minimum biocidal concentration) ([2]; Table 4, lowest concentration giving zero bacterial survival after 15 seconds, upper boundaries)	MBC of antimicrobial alcohol ([2]; Table 5, 15 seconds)	MBC of component alone (MBCA, MBCB) [3]	MBC of thymol ([2]; Table 5, thymol alone, 15 seconds)	MBC of thymol ([2]; Table 11, MBC of thymol of Example 1)
CC1CCC(CO)C(C)C1 (centres unmarked) [dihydrofloralol, (2,4-dimethylcyclohexyl)methanol]	complete kill in all 4 replicates	0.5 % w/v	0.5 % w/v	0.5 % (w/v)	–	–	–	–	–	–
CC1=CCC(CO)C(C)C1 (centres unmarked) [floralol, (4,6-dimethylcyclohex-3-en-1-yl)methanol]	complete kill in all 4 replicates	0.4 % w/v	0.3 % w/v	0.3 % (w/v)	–	–	–	–	–	–
CC1=CC(C)C(CO)C(C)C1 (centres unmarked) [isocyclogeraniol, (2,4,6-trimethylcyclohex-3-en-1-yl)methanol]	complete kill in all 4 replicates	higher than the highest tested concentrations	–	–	>0.5 % w/v	0.3 % w/v	0.3 % (w/v)	0.6 weight %	–	–
Cc1ccc(C(C)C)c(O)c1 [thymol, 2-isopropyl-5-methylphenol]	–	–	–	–	–	–	–	0.5 weight %	0.05 % (w/v)	0.05 % (w/v)
